According to ChEMBL document CHEMBL1138495, “Inhibition of subgenomic hepatitis C virus RNA replication by acridone derivatives: identification of an NS3 helicase inhibitor” (J Med Chem, 2009):
Values after ≈ are worked out from the molar mass of the structure shown. Active and inactive are the calls of the source. The calls are words filed in the database; no cut-off is given here.

Experiments:
Vero [1] = experiment: Cytostatic activity against african green monkey Vero cells; assay type: ADME, cell-based; details: chlorocebus sabaeus
[2] = Inhibition of ATPase activity of HCV […] expressed in Escherichia coli; parameters: species or system Hepacivirus hominis
Vero [3] = experiment: Cytostatic activity against african green monkey Vero cells in presence of guanosine; assay type: ADME, cell-based; details: chlorocebus sabaeus
[4] = Cytostatic activity against human HuH5.2 after 3 days by MTS/PMS assay; assay type: ADME, Huh-5-2; details: HuH5.2 cells
Hepacivirus hominis = experiment: Inhibition of HCV recombinant NS5B RNA polymerase expressed in Escherichia coli up to 100 uM by liquid scintillation counter
[5] = Inhibition of HCV NS3 helicase expressed in Escherichia coli; parameters: species or system Hepacivirus hominis
Hepatitis C virus = experiment: Antiviral activity against HCV infected in human HuH5.2 assessed as inhibition of viral RNA synthesis after 4 days by Steady-Glo-luciferase assay; assay type: functional, organism-based, Hepacivirus hominis; details: Huh-5-2, 96 h

With `COc1cc(OC)c2c(=O)c3cc(N)c(N4CCN(c5nccs5)CC4)cc3n(C)c2c1` the Activity (Vero [1]) was “Toxic”, the IC50 [2] was > 1000 µM and the Activity (Vero [3]) was “Non-toxic”. The CC50 at 72 h [4] was > 50 mg/L, the Activity (Hepacivirus hominis) was “inactive” and the IC50 [5] was 50 mg/L (≈ 111 µM). It also gave an EC50 (Hepatitis C virus) of 3 mg/L (≈ 6.64 µM).
